Test results published in patent US10076504B2, “Glucagon antagonists” (Ligand Pharmaceuticals, Inc., priority 2014, dated 2018).
Read-outs that look alike come from different tables or passages of the source.

Columns and labels:
[1] = Liver microsome incubation; format: in vitro ADME, rat
Method: (§1) The compound of Formula IIIa (below) was incubated for 60 minutes at 37 C with mouse, rat, dog, monkey, and human liver microsomes.
(§2) Concentrations of IIIa were measured at multiple time points by LC-MS/MS. IIIa was stable with predicted clearance well below hepatic blood flow in all species.

[2] = Liver microsome incubation; format: in vitro ADME, human
Method: as §1, §2

[3] = Pharmacokinetics after oral and IV administration; format: in vivo; conditions: IV Dose 1 mg/kg, PO Dose 3 mg/kg; for AUC(0-t) / Cmax / Tmax / clearance / half-life / Vd: plasma; for Vd: read-out: VSS
Method: (§3) Pharmacokinetics of IIIa were evaluated after both oral and IV administration in mice, rats, dogs, and monkeys.

[4] = Liver microsome incubation; format: in vitro ADME, dog
Method: as §1, §2

[5] = Single ascending dose study, safety and tolerability; format: in vivo, human; conditions: for Any study drug related TEAE / Gastrointestinal disorders Diarrhoea / Gastrointestinal disorders Nausea / Gastrointestinal disorders Vomiting / Nervous systems disorders Headache: Normal Healthy Volunteers, 6 subjects; for tolerability: single oral doses 2 to 480 mg in NHV, 40 mg in T2DM subjects
Method: (§4) Oral doses of IIIa were administered to normal healthy volunteers (NHV) and subjects with type 2 diabetes mellitus (T2DM). A single center, randomized, double-blind, placebo-controlled single ascending dose study was done in both NHV (n=48) and T2DM subjects (n=8). Dose escalation only occurred after review of safety and tolerability data from previous dose levels (n=8/cohort; 2-placebo & 6-IIIa). Dosing of the T2DM cohort was initiated only after the equivalent dose had been administered to NHV and safety data had been reviewed. All subjects were administered IIIa in the morning after an overnight fast with the exception of the NHV in the 40 mg cohort. NHV subjects in the 40 mg cohort initially received IIIa in a fasted state. Following a 3 week washout period, IIIa was readministered after breakfast at 40 mg to determine the effects of food consumption on pharmacokinetics.
This was a single center, randomized, double-blind, placebo-controlled single ascending dose study in both normal healthy volunteers (NHV) (n=48) and subjects with type 2 diabetes mellitus (T2DM) (n=8). All subjects were administered Formula IIIa as a solution formulated with Captisol® after an overnight fast with the exception of the NHV in the 40 mg cohort. The NHV 40 mg cohort initially received Formula IIIa in a fasted state. Following a washout period, subjects received 40 mg Formula IIIa after breakfast to explore the effects of food consumption on pharmacokinetics.
In type 2 diabetes mellitus (T2DM), inappropriately elevated levels of glucagon exacerbate hyperglycemia and its associated complications. Not wishing to be bound to a particular theory, it has been observed that antagonism of glucagon action reduces blood glucose levels and hemoglobin A1c in patients with T2DM. The novel, selective, orally bioavailable glucagon receptor antagonist, Formula IIIa (below), was investigated regarding its pharmacokinetics (PK), safety, and pharmacodynamics (PD) in a first-in-human, ascending, single-dose, double blind, placebo-controlled study in normal healthy (NH) and T2DM subjects (NCT01919684).

[6] = Liver microsome incubation; format: in vitro ADME, monkey
Method: as §1, §2

fasting plasma glucose = experiment: Single ascending dose study, pharmacodynamics; format: in vivo, human
Method: as §4
Formula IIIa was well-absorbed after oral administration; peak plasma concentrations were reached approximately 5 to 8 hours post dose with a long elimination half-life of about 50 hours. Such data supports, for example, once-daily dosing of Formula III. The effects of Formula IIIa on fasting and post-prandial plasma glucose, glucagon, insulin, and glucagon-like peptide-1 (GLP-1) were evaluated in NH and T2DM subjects, and a meal tolerance test (MTT) and continuous glucose monitoring (CGM) were performed in T2DM subjects. […] The decrease in glucose was most obvious in the fasting plasma glucose (FPG) levels 24 and 48 hours post-dose. The magnitude of decrease in FPG was greater in subjects with T2DM than in NH subjects.

[7] = Excretion experiments in rats; format: in vivo, rat
Method: as §3

[8] = NHV and T2DM subjects, single dose
[9] = T2DM subjects, single dose 40 mg

1st-order kinetic rate constant ([1]; Rat liver microsomes, 60 minutes at 37 C): 0.0058 min⁻¹
Predicted systemic clearance ([1]; Rat, from liver microsomes): 13.8 mL/min/kg body weight
1st-order kinetic rate constant ([2]; Human liver microsomes, 60 minutes at 37 C): 0.0021 min⁻¹
Predicted systemic clearance ([2]; Human, from liver microsomes): 3.18 mL/min/kg body weight
F ([3]; Dog): 54%
F ([3]; Monkey): 21%
F ([3]; Mouse): 47%
F ([3]; Rat): 36%
AUC(0-t) ([3]; Dog): 225000 ng·h/mL
Cmax ([3]; Dog): 10900 ng/mL
Tmax ([3]; Dog): 4 h
clearance ([3]; Dog): 0.07 mL/min/kg
half-life ([3]; Dog): 46 h
Vd ([3]; Dog): 0.24 L/kg
AUC(0-t) ([3]; Monkey): 9850 ng·h/mL
Cmax ([3]; Monkey): 1250 ng/mL
Tmax ([3]; Monkey): 4 h
clearance ([3]; Monkey): 1.13 mL/min/kg
half-life ([3]; Monkey): 16.2 h
Vd ([3]; Monkey): 0.16 L/kg
AUC(0-t) ([3]; Mouse): 16300 ng·h/mL
Cmax ([3]; Mouse): 1710 ng/mL
Tmax ([3]; Mouse): 6 h
clearance ([3]; Mouse): 22.2 mL/min/kg
half-life ([3]; Mouse): 5.9 h
Vd ([3]; Mouse): 0.62 L/kg
AUC(0-t) ([3]; Rat): 7600 ng·h/mL
Cmax ([3]; Rat): 1330 ng/mL
Tmax ([3]; Rat): 2 h
clearance ([3]; Rat): 2.33 mL/min/kg
half-life ([3]; Rat): 10.9 h
Vd ([3]; Rat): 0.3 L/kg
1st-order kinetic rate constant ([4]; Dog liver microsomes, 60 minutes at 37 C): 0.0016 min⁻¹
Predicted systemic clearance ([4]; Dog, from liver microsomes): 4.01 mL/min/kg body weight
1st-order kinetic rate constant ([6]; Monkey liver microsomes, 60 minutes at 37 C): 0.0057 min⁻¹
Predicted systemic clearance ([6]; Monkey, from liver microsomes): 11.9 mL/min/kg body weight
levels detected in the urine [7]: negligible
route of excretion [7]: primarily excreted in the bile
Compound: Cc1cc(C)c(-c2ccc(NC(=O)[C@H](Cc3ccc(C(=O)NCCS(=O)(=O)O)cc3)c3ccc(-c4ccc(C(C)(C)C)cc4)cc3)cc2)c(C)c1 [IIIa]
cases of hypoglycemia (glucose <60 mg/dL) [5, 8]: no cases of hypoglycemia
serious adverse events [5, 8]: no serious adverse events
Any study drug related TEAE ([5]; 2 mg): 0 (0.0)
Gastrointestinal disorders Diarrhoea ([5]; 2 mg): 0 (0.0)
Gastrointestinal disorders Nausea ([5]; 2 mg): 0 (0.0)
Gastrointestinal disorders Vomiting ([5]; 2 mg): 0 (0.0)
Nervous systems disorders Headache ([5]; 2 mg): 0 (0.0)
Any study drug related TEAE ([5]; 10 mg): 1 (16.7)
Gastrointestinal disorders Diarrhoea ([5]; 10 mg): 0 (0.0)
Gastrointestinal disorders Nausea ([5]; 10 mg): 0 (0.0)
Gastrointestinal disorders Vomiting ([5]; 10 mg): 0 (0.0)
Nervous systems disorders Headache ([5]; 10 mg): 1 (16.7)
Any study drug related TEAE ([5]; 40 mg): 0 (0.0)
Gastrointestinal disorders Diarrhoea ([5]; 40 mg): 0 (0.0)
Gastrointestinal disorders Nausea ([5]; 40 mg): 0 (0.0)
Gastrointestinal disorders Vomiting ([5]; 40 mg): 0 (0.0)
Nervous systems disorders Headache ([5]; 40 mg): 0 (0.0)
Any study drug related TEAE ([5]; 120 mg): 2 (33.3)
Gastrointestinal disorders Diarrhoea ([5]; 120 mg): 0 (0.0)
Gastrointestinal disorders Nausea ([5]; 120 mg): 0 (0.0)
Gastrointestinal disorders Vomiting ([5]; 120 mg): 0 (0.0)
Nervous systems disorders Headache ([5]; 120 mg): 2 (33.3)
Any study drug related TEAE ([5]; 240 mg): 2 (33.3)
Gastrointestinal disorders Diarrhoea ([5]; 240 mg): 0 (0.0)
Gastrointestinal disorders Nausea ([5]; 240 mg): 1 (16.7)
Gastrointestinal disorders Vomiting ([5]; 240 mg): 0 (0.0)
Nervous systems disorders Headache ([5]; 240 mg): 1 (16.7)
Any study drug related TEAE ([5]; 480 mg): 2 (33.3)
Gastrointestinal disorders Diarrhoea ([5]; 480 mg): 1 (16.7)
Gastrointestinal disorders Nausea ([5]; 480 mg): 1 (16.7)
Gastrointestinal disorders Vomiting ([5]; 480 mg): 1 (16.7)
Nervous systems disorders Headache ([5]; 480 mg): 0 (0.0)
study drug related treatment emergent adverse events (TEAE), NHV vs T2DM subjects ([5]; single dose): observed in the NHV but not the T2DM subjects
tolerability [5]: well tolerated
tolerability ([5]; listed as Formula IIIa): well tolerated and considered safe up to the highest dose tested
glucose levels (fasting plasma glucose; NH subjects): small decreases in glucose levels approximating dose-dependency
mean glucagon and total GLP-1 levels (fasting plasma glucose; NH subjects, dose-dependent up to 240 mg, 24 to 96 hours post-dose): increased
glucose levels (fasting plasma glucose; T2DM subjects): lowered glucose levels
duration of glucose suppression (fasting plasma glucose; T2DM subjects, single dose): continued through 48 hours
lowering of fasting plasma glucose (fasting plasma glucose; [9]): 50 mg/dL
lowering of fasting plasma glucose, placebo adjusted (fasting plasma glucose; [9]): 57 mg/dL
changes in active GLP-1 or insulin levels (fasting plasma glucose; all dose groups, single dose): did not generate a consistent trend
duration of glucose suppression (fasting plasma glucose; normal healthy volunteers): continued through 48 hours
fasting plasma glucose (fasting plasma glucose; normal healthy volunteers, single dose 2 to 480 mg): lowered fasting plasma glucose
24-hour glucose AUC (continuous glucose monitoring) (fasting plasma glucose; subjects with T2DM): reduction
mean glucagon and total GLP-1 levels (fasting plasma glucose; subjects with T2DM, compared to placebo, 24 to 72 hours post-dose): increased compared to placebo treatment
